According to patent US20150157023A1, “S[…] CONTROL FROM COMBINATIONS OF 2,4-D-CHOLINE AND GLUFOSINATE” (Dow AgroSciences LLC, priority 2013, published 2015):
Counter-ions that a name gives are not always drawn.

Tested on: AAD12 Soybean (GLXMA)
Assay: Field crop tolerance trials (% visual injury, chlorosis, growth inhibition)
Method: These trials were conducted under field conditions in multiple states in the United States, including but not limited to Arkansas, Illinois, Indiana, Minnesota, Mississippi, Nebraska, Ohio, Oklahoma, Texas, South Carolina and South Dakota. […] Treatments were applied with small plot backpack sprayers, using pressurized air or carbon dioxide (CO2) as propellant. Pressure varied from 22-50 pounds per square inch (psi), with spray tips typically of a Flat Fan type applying water diluent at 15 gallons per acre (GPA). Boom sizes varied from 6.3-10 ft in width. Treatments were applied to soybean, cotton, corn or fallow crop land. Weed sizes varied, but all treatments were applied as post-emergence treatments to weeds from 2 leaf to 2 tiller growth stages varying from 2 to 15 inches in height. The weed spectrum included, but was not limited to, Amaranthus palmeri S. Wats. (Palmer amaranth, AMAPA), Conyza canadensis (L.) Cronq. (horseweed, ERICA), Salsola tragus L. (Russian thistle, SASKR) and Sesbania exaltata (hemp sesbania, SEBEX).
2,4-D- and glufosinate-tolerant soybeans, corn and cotton and optionally a glyphosate trait in a breeding (CP4 EPSPS) or a molecular stack (2mEPSPS) were used in all tolerance trials.
The 2,4-D-choline salt formulation was a 456 g ae/L SL. […] All treatments were mixed in water at appropriate formulated product rates to achieve the desired rates as shown based on a unit area of application (hectare). Treatments were rated at 2 to 28 days after application (DAA) as compared to the untreated control plants. The trial sites had naturally occurring populations of weeds. The treated plots and control plots were rated blind at various intervals after application. […]

SMILES | Mean % crop growth inhibition (7DAA, 2130 g ae/ha) [%] | Mean % crop growth inhibition (14DAA, 2130 g ae/ha) [%] | Mean % crop growth inhibition (15DAA, 2130 g ae/ha) [%] | Mean % crop growth inhibition (7DAA, 1084 g ae/ha) [%] | Mean % crop growth inhibition (15DAA, 1084 g ae/ha) [%]
O=C(O)COc1ccc(Cl)cc1Cl [2,4-D-Choline salt, 2-hydroxy-N,N,N-trimethylethanaminium 2-(2,4-dichlorophenoxy)acetate] | 1 | 0 | 0 |  | 
CP(=O)(O)CCC(N)C(=O)O (centres unmarked) [Glufosinate-ammonium, ammonium (3-amino-3-carboxypropyl)(methyl)phosphinate] |  |  |  | 14.0 | 9.8
